Experimental findings from ChEMBL document CHEMBL5209572, “Membrane potential based assay for SLC22A4 using HEK-293 SLC22A4 OE cells” (2022) are described below.

This assay has as its target T1, Solute carrier family 22 member 4 (Homo sapiens, UniProt Q9H015).
T1 sequence (Q9H015 whole entry): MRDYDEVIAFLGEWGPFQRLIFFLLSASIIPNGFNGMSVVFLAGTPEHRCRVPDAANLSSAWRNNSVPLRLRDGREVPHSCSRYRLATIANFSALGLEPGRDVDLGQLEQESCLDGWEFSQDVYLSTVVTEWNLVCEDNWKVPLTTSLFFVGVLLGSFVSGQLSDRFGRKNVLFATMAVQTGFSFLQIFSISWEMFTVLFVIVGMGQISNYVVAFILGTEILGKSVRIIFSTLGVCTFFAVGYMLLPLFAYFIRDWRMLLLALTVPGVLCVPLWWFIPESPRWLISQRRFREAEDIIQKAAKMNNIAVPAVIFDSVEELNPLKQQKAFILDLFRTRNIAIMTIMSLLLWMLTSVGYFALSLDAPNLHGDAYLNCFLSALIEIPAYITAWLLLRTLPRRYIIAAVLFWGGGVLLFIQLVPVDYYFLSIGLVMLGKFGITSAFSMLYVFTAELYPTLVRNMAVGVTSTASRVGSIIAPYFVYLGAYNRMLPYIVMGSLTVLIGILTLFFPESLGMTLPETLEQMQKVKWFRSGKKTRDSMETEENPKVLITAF
Nature of the assay: Substrate uptake by the Organic Cation/Carnitine Transporter 1 (OCTN1, SLC22A4) as assessed by the fluorescent FLIPR membrane potential dye in HEK-293 cells stably transfected with SLC22A4 (PubChem AID: 1794816). The assay is classed as functional, cell-based, HEK293.

`C[N+](C)(C)[C@@H](Cc1c[nH]c(=S)[nH]1)C(=O)[O-]` came in with an EC50 of 40 µM.

The term EC50 denotes the concentration giving half of the maximal effect. Low readings indicate an effect from little substance, high ones a need for much substance.
